Laboratory results as given in ChEMBL document CHEMBL5614449, “Open Source Code Contributions to Global Health: The Case of Antimalarial Drug Discovery” (ACS Med Chem Lett, 2024).

System: Plasmodium
Test: Antiplasmodial activity against Plasmodium
Type: functional, organism-based

SMILES	IC50 [µM]
FC(F)Oc1ccc(-c2nnc3cncc(OCc4cc5c(cc4Cl)OCO5)n23)cc1	> 25
Fc1cccc(OCCOc2cncc3nnc(-c4ccc(OC(F)F)cc4)n23)c1	1.35
FC(F)Oc1ccc(-c2nnc3cncc(OCCCC(F)(F)F)n23)cc1	0.41
FC(F)Oc1ccc(-c2nnc3cncc(OCc4cnccc4C(F)(F)F)n23)cc1	5.9
FC(F)Oc1ccc(-c2nnc3cncc(OCc4ccccc4C(F)(F)F)n23)cc1	0.89
COC(COc1cncc2nnc(-c3ccc(OC(F)F)cc3)n12)c1ccc(OC(F)F)cc1 (stereo not drawn)	0.077
FC(F)Oc1ccc(-c2nnc3cncc(OCc4ccc(C(F)(F)F)cc4)n23)cc1	5.27
FC(F)Oc1ccc(-c2nnc3cncc(OCc4cc(OC(F)F)ccn4)n23)cc1	5.04
COC(COc1cncc2nnc(-c3ccc(OC(F)F)cc3)n12)c1ccccc1 (stereo not drawn)	0.11
FC(F)Oc1ccc(-c2nnc3cncc(OCCc4ccccc4)n23)cc1	0.17
FC(F)Oc1ccc(-c2nnc3cncc(OCc4csc(C(F)(F)F)c4)n23)cc1	2.46
Fc1cc2c(cc1F)C(COc1cncc3nnc(-c4ccc(OC(F)F)cc4)n13)C2 (stereo not drawn)	0.48

Further lines, results first:

IC50 [µM]	SMILES
> 10	FC(F)Oc1ccc(-c2nnc3cncc(OCc4ccc5c(c4)OCO5)n23)cc1
4.08	Fc1cccc(F)c1COc1cncc2nnc(-c3ccc(OC(F)F)cc3)n12
0.39	FC(F)Oc1ccc(-c2nnc3cncc(OCc4cccc(C(F)(F)F)c4)n23)cc1
1.12	FC(F)Oc1ccc(-c2nnc3cncc(OCc4ccccc4)n23)cc1
0.67	FC(F)Oc1ccc(-c2nnc3cncc(OCc4cccc(Br)c4)n23)cc1
0.25	O=[N+]([O-])c1cccc(CCOc2cncc3nnc(-c4ccc(OC(F)F)cc4)n23)c1
